The nature of data set [1]: pharmacokinetics in plasma and brain after intraperitoneal administration (UPLC-MS/MS). Format: in vivo, mouse. Also noted: key to Brain Concentration over time, sex-dependent difference / Plasma Concentration over time, sex-dependent difference: F, female; M, male; NS, not statistically different. As to conditions: for Kp / half-life / Tmax: CD-1, mouse, ip; for Kp: brain and plasma; for half-life: terminal half-life; for Brain Concentration over time, sex-dependent difference / Plasma Concentration over time, sex-dependent difference / Brain Total exposure (AUC), sex-dependent difference / Plasma Total exposure (AUC), sex-dependent difference: female vs male mice; for Brain Concentration over time, sex-dependent difference / Plasma Concentration over time, sex-dependent difference: ANOVA, Holm-Šídák post-hoc; for Brain Total exposure (AUC), sex-dependent difference / Plasma Total exposure (AUC), sex-dependent difference: t-test; for Tmax: earliest sampling time 10 min. How it is done:
Male and female CD-1 mice (Charles Rivers Laboratories, Raleigh, NC, USA), 8-11 weeks old at the time of testing, were habituated to the University of Maryland (Baltimore, MD, USA) animal facility for at least one week prior to testing. Mice were group housed 4-5 per cage with a constant 12-hour light cycle (lights on/off at 07:00/19:00). Food and water were available ad libitum. All experiments were performed during the light phase. All animal studies were approved by the University of Maryland School of Medicine Institutional Animal Care and Use Committee and conducted in accordance with the National Institutes of Health Guide for the Care and Use of Laboratory Animals.
(2R,6R)-HNK hydrochloride, (2S,6S)-HNK hydrochloride, (2R,6S)-HNK, (2S,6R)-HNK, (2R,5R)-HNK, (2S,5S)-HNK, (2R,5S)-HNK, (2S,5R)-HNK, (2R,4R)-HNK, (2S,4S)-HNK, (2R,4S)-HNK, and (2S,4R)-HNK hydrochloride were synthesized at the National Center for Advancing Translation Sciences (National Institutes of Health, Rockville, MD, USA) using methods previously described in Morris et al., Org Lett 17:4572-4575 (2017), which is incorporated by reference herein in its entirety. (5R)-methyl-(2R,6R)-HNK was obtained from Organix Inc. (Woburn, MA, USA) or from the National Center for Advancing Translational Sciences (Rockville, MD, USA); synthesis and characterization are described in the Supplemental Information. All compounds were dissolved in 20% (w/v) cyclodextrin (Sigma Aldrich, USA) in saline and administered intraperitoneally (i.p.) in a volume of 7.5 ml/kg.
At 10 min (0.167 h), 30 min (0.5 h), 1 h, 2 h, and 4 h post-treatment, mice were deeply anesthetized (3.5% isoflurane for approximately 2 min). Trunk blood was collected into 1.5-ml polypropylene tubes containing 30 μl of disodium EDTA (0.5 M, pH 8.0) and kept on ice until plasma collection (<30 min). Brains were then removed, flash-frozen in isopentane, and stored at −80° C. until analysis. Blood was centrifuged at 8000×g for 6 min at 4° C. to obtain plasma. Plasma was collected into clean microcentrifuge tubes and stored at −80° C. until analysis.
Ultra-performance liquid chromatography-tandem mass spectrometry (UPLC-MS/MS) methods were developed and optimized to determine the concentration of each HNK in mouse plasma and brain samples following systemic administration. Mass spectrometric analysis was performed on a Waters Xevo TQ-S triple quadrupole instrument using electrospray ionization in positive mode with the selected reaction monitoring. The separation of HNKs from endogenous components was performed on a Waters Acquity UPLC with 0.5 ml/min flow rate and gradient elution. The mobile phase A and B were 0.1% formic acid in water and 0.1% formic acid in acetonitrile, respectively. Plasma and brain concentrations of (2R,6R)-, (2S,6S)-, (2R,4S)-, and (2S,4R)-HNK were determined by hydrophilic interaction liquid chromatography-tandem mass spectrometry (HILIC UPLC-MS/MS) using a BEH amide column (1.7μ, 2.1×50 mm). Plasma and brain concentrations of (2R,6S)-, (2S,6R)-, (2R,5R)- (2S,5S)-, (2R,5S)-, (2S,5R)-, (2R,4R)-, and (2S,4S)-HNK; and (5R)-methyl-(2R,6R)-HNK were determined by reversed phase UPLC-MS/MS based upon a previously described protocol with several modifications using a BEH C18 column ([…], 2.1×50 mm). See Moaddel et al., Talanta 82:1892-1904 (2010), and Zanos et al., Nature 533:481-486 ([…]), both of which are incorporated by reference herein in their entireties.
The gradient for HILIC UPLC method was: 0-0.2 min 98% B; 0.2-1.4 min 98% to 35% B; 1.4-1.8 min 35% to 10% B, 1.9-2.4 min 98% B. The gradient for BEH Cis UPLC method was: 0-0.2 min 1% B; 0.2-1.4 min 1% to 35% B; 1.4-1.8 min 35% to 98% B, 1.8-2.2 min 98% B, 2.3 min 1% B. The analytical run time of the UPLC methods was 2.5 min. The calibration standards and quality control samples were prepared in blank mouse plasma and brain homogenate. Calibration standards ranged from 5.0-5000 ng/ml. […]

For data set [2], the system named is mice. As to conditions: i.p.; earlier study; cited from earlier work.
For data set [3] the following is noted: i.p.; earlier study; cited from earlier work.
A further data set concerns the target NMDARs. The settings on record: read-out: Ki (binding / inhibition of NMDARs); cited from earlier work.
Data set [4] concerns mice. As to the kind of experiment: overt adverse effects after oral administration. Format: in vivo, mouse.
For data set [5] the following is noted: 10 mg/kg, i.p.; cited from earlier work.
The mark [6] stands for this setting: female mice, i.p. 5 mg/kg, read-out: B:P ratio (brain to plasma AUC ratio).
Setting [7] is: male mice, i.p. 5 mg/kg, read-out: B:P ratio (brain to plasma AUC ratio).
Setting [8] is: plasma, male mice, i.p. 5 mg/kg, read-out: t1/2 Plasma (converted).
Where [9] appears, read: brain, female mice, i.p. 5 mg/kg, read-out: t1/2 Brain (converted).
[10] abbreviates: brain, male mice, i.p. 5 mg/kg, read-out: t1/2 Brain (converted).
[11] abbreviates: male mice, equivalent systemic doses.
[12] abbreviates: plasma, female mice, i.p. 5 mg/kg, read-out: t1/2 Plasma (converted).

The structures appear in SMILES notation. Read-outs that look alike come from different tables or passages of the source.

As to `N[C@]1(c2ccccc2Cl)CCC[C@@H](O)C1=O` [(2S,6R)-HNK], the Kp in data set [1] (setting [6]) came to 1.4. Besides, the Kp in data set [1] (setting [7]) came out at 1.2. Also, in data set [1] (setting [8]), the half-life was 42 min. Further, in data set [1] (i.p. 5 mg/kg), the “Brain Concentration over time, sex-dependent difference” value was “main effect of sex, F > M”; the “Plasma Concentration over time, sex-dependent difference” value is “NS”; the “Brain Total exposure (AUC), sex-dependent difference” value was “F > M”; the “Plasma Total exposure (AUC), sex-dependent difference” value is reported as “F > M”. The “peak and total brain levels, lower compared to equivalent dosing with (2R,6R)-HNK” value in data set [1] (male mice) was “three-fold”.

Consider `N[C@]1(c2ccccc2Cl)CCC[C@H](O)C1=O` [(2S,6S)-HNK, (2S,6S)-hydroxynorketamine], for which the Kp in data set [1] (setting [6]) stood at 1.2. In data set [1] (setting [9]), the half-life was 42 min. In addition, the half-life in data set [1] (setting [10]) was 42 min. Further, in data set [1] (setting [8]), the half-life was 42 min. In data set [1] (i.p. 5 mg/kg), the “Brain Concentration over time, sex-dependent difference” value is “F > M at 10, 30 min”; the “Plasma Concentration over time, sex-dependent difference” value is listed as “main effect of sex, F > M”; the “Brain Total exposure (AUC), sex-dependent difference” value is “F > M”; the “Plasma Total exposure (AUC), sex-dependent difference” value was “F > M”. In data set [1] (setting [11]), the “Cmax and AUC, fold greater than those of (2R,6R)-HNK” value is given as 2-3 fold; the “peak and total brain levels, fold greater than those of (2R,6R)-HNK” value is 2-3 fold. Besides, in the data set on mice [2], the “lowest dose reducing forced swim test immobility time” value is on record as 25 mg/kg. For the same molecule, the “lowest dose reducing escape failures in the learned helplessness test” value in data set [3] is 75 mg/kg. Further, on NMDARs, the Ki is 7.34 to 21.2 µM.

For the molecule `C[C@@H]1CC[C@@](N)(c2ccccc2Cl)C(=O)[C@@H]1O.Cl` [(5R)-methyl-(2R,6R)-HNK, (2R,5R,6R)-2-amino-2-(2-chlorophenyl)-6-hydroxy-5-methylcyclohexan-1-one hydrochloride], the Kp was determined as 0.4 in data set [1] (setting [6]); 0.4 in data set [1] (setting [7]); 0.4 in data set [1] (both sexes, male and female mice, i.p. 5 mg/kg, read-out: brain to plasma AUC (exposure) ratio). In addition, the Tmax was 10 min in data set [1] (brain, both sexes, i.p. 5 mg/kg, read-out: Tmax in the brain (converted)) and 10 min in data set [1] (plasma, both sexes, i.p. 5 mg/kg, read-out: Tmax in the plasma (converted)). Besides, the half-life in data set [1] (setting [9]) was 42 min; in data set [1] (setting [10]), 48 min; in data set [1] (setting [12]) it was 48 min; in data set [1] (setting [8]) it was 48 min. In addition, in data set [1] (i.p. 5 mg/kg), the “Brain Concentration over time, sex-dependent difference” value is on record as “NS”. In addition, the “Plasma Concentration over time, sex-dependent difference” value in data set [1] (i.p. 5 mg/kg) is reported as “main effect of sex, M > F”. Besides, in data set [1] (i.p. 5 mg/kg), the “Brain Total exposure (AUC), sex-dependent difference” value is “M > F”. For the same molecule, the “Plasma Total exposure (AUC), sex-dependent difference” value in data set [1] (i.p. 5 mg/kg) is on record as “M > F”.

`N[C@@]1(c2ccccc2Cl)CCC[C@@H](O)C1=O` [(2R,6R)-HNK, (2R,6R)-hydroxynorketamine]: in data set [1] (setting [6]), the Kp is 1.3. Also, the Kp in data set [1] (setting [7]) is 1.3. Also, the half-life in data set [1] (setting [9]) is 36 min. The half-life in data set [1] (setting [10]) was 36 min. Moreover, the half-life in data set [1] (setting [12]) was 36 min. Moreover, in data set [1] (setting [8]), the half-life is 36 min. In data set [1] (i.p. 5 mg/kg), the “Brain Concentration over time, sex-dependent difference” value is “F > M at 10, 30 min”; the “Plasma Concentration over time, sex-dependent difference” value is reported as “F > M at 10, 30 min”; the “Brain Total exposure (AUC), sex-dependent difference” value was “F > M”; the “Plasma Total exposure (AUC), sex-dependent difference” value is “F > M”. Further, in the data set with mice [4], the “fold higher than doses required for antidepressant-relevant effects (dose without overt adverse effects)” value was “at least 9 fold” and the “oral doses without overt adverse effects” value is “up to 450 mg/kg”. Moreover, the “lowest dose reducing forced swim test immobility time” value in the data set with mice [2] was 5 mg/kg. The “lowest dose reducing escape failures in the learned helplessness test” value in data set [3] is reported as 3 mg/kg. The Ki on NMDARs was greater than 100 µM. In data set [5], the “estimated concentration in brain tissue” value is less than 20 µmol/kg and the “estimated concentration in the extracellular hippocampal space” value was less than 10 µM.

Turning to `N[C@@]1(c2ccccc2Cl)CCC[C@H](O)C1=O` [(2R,6S)-HNK], the figures for the Kp in data set [1] (setting [6]) and in data set [1] (setting [7]) were 0.7 and 0.6, respectively. The half-life in data set [1] (setting [9]) is 24 min; in data set [1] (setting [10]), 42 min; in data set [1] (setting [8]), 54 min. Further, the “Brain Concentration over time, sex-dependent difference” value in data set [1] (i.p. 5 mg/kg) is given as “NS”. Moreover, the “Plasma Concentration over time, sex-dependent difference” value in data set [1] (i.p. 5 mg/kg) is given as “main effect of sex, M > F”. Besides, the “Brain Total exposure (AUC), sex-dependent difference” value in data set [1] (i.p. 5 mg/kg) is given as “M > F”. In data set [1] (i.p. 5 mg/kg), the “Plasma Total exposure (AUC), sex-dependent difference” value is on record as “M > F”. Also, in data set [1] (females, but not males, i.p. 5 mg/kg, LLOQ 5.0 ng/ml), the “brain concentration at 4 h post-treatment” value was “below LLOQs”. The “peak and total brain levels, lower compared to equivalent dosing with (2R,6R)-HNK” value in data set [1] (male mice) was “two-fold”.

These data come from patent publication US20230331655A1, “HYDROXYN[…] AND METHODS OF USE THEREOF” (UNIVERSITY OF MARYLAND, BALTIMORE, priority 2020, published 2023).
